Measured values published in ChEMBL document CHEMBL5137030 (Eur J Med Chem, 2022).
The source made the active and inactive calls. The rule behind the calls is not given here.

Tests used:
Human alphaherpesvirus 2 [1] = assay: Antiviral activity against HSV-2 333vhsB infected in African green monkey Vero cells assessed as inhibition of viral replication by measuring reduction in virus-induced cytopathic effect at 50 uM incubated for 20 hrs by colorimetric analysis; type: functional, organism-based
Human alphaherpesvirus 2 [2] = assay: (§1) Antiviral activity against HSV-2 infected in African green monkey Vero cells assessed as inhibition of viral replication by measuring log suppression of virus-induced cytopathic effect at 5 uM incubated for 1 hr followed by washing with PBS and subsequent treatment with compound for 24 hrs by plaque assay; type: functional; settings: time 25 hrs
Human alphaherpesvirus 2 [3] = assay: as §1, with “1” for “5”; type: functional; settings: time 25 hrs
Human alphaherpesvirus 2 [4] = assay: Antiviral activity against HSV-2 infected in African green monkey Vero cells assessed as inhibition of viral replication incubated for 1 hr followed by washing with PBS and subsequent treatment with compound for 24 hrs by plaque reduction assay; type: functional, organism-based; settings: Human alphaherpesvirus 2, Vero
Vero = assay: Cytotoxicity against African green monkey Vero cells assessed as reduction in cell viability incubated for 24 hrs by MTS assay; settings: chlorocebus sabaeus
[5] = Cytotoxicity against human HepDES19 cells assessed as reduction in cell viability incubated for 72 hrs by MTS assay; type: toxicity, cell-based; settings: hepdes19, 72 h
[6] = Half life in mouse liver microsomes at 2 uM in presence of NADPH by LC/MS/MS analysis; type: ADME, Microsome
[7] = Half life in human liver microsomes at 2 uM in presence of NADPH by LC/MS/MS analysis; type: ADME, Microsome
[8] = Apparent permeability of the compound across apical to basolateral side in human Caco-2 cells at 10 uM incubated for 2 hrs; type: ADME, cell-based; settings: caco-2, 2 h
Human alphaherpesvirus 1 [9] = assay: as §1, with “HSV-1” for “HSV-2”; type: functional; settings: time 25 hrs
Human alphaherpesvirus 1 [10] = assay: as §1, with “HSV-1” for “HSV-2”, “1” for “5”; type: functional; settings: time 25 hrs
Human alphaherpesvirus 1 [11] = assay: Antiviral activity against HSV-1 infected in African green monkey Vero cells assessed as inhibition of viral replication incubated for 1 hr followed by washing with PBS and subsequent treatment with compound for 24 hrs by plaque reduction assay; type: functional, organism-based; settings: Human alphaherpesvirus 1, Vero
[12] = Half-life in BALB/c mouse at 3 mg/kg, po and 1 mg/kg, iv by LC/MS/MS analysis; type: ADME, organism-based; settings: in vivo
[13] = Oral bioavailability in BALB/c mouse at 3 mg/kg by LC/MS/MS analysis; type: ADME, organism-based; settings: in vivo

SMILES	Activity (Human alphaherpesvirus 2 [1])	log(activity) (Human alphaherpesvirus 2 [2])	log(activity) (Human alphaherpesvirus 2 [3])	EC50 (Human alphaherpesvirus 2 [4]) [µM]	CC50 (Vero) [µM]	CC50 [5] [µM]	t1/2 [6] [min]	t1/2 [7] [min]	Papp [8]	log(activity) (Human alphaherpesvirus 1 [9])	log(activity) (Human alphaherpesvirus 1 [10])	EC50 (Human alphaherpesvirus 1 [11]) [µM]	t1/2 [12] [min]	bioavailability [13] [%]
COc1cccc(Cc2cc(C)cc(=O)n2O)c1	Active	4.57	2.15	0.27	> 100	60	15	19	2.43 10^-7 cm/s	–	–	–	–	–
Cc1cc(Cc2ccccc2)n(O)c(=O)c1	Active	5.79	1.59	0.23	> 100	42	< 5	6	1.44 10^-5cm/s	4.71	1.07	–	–	–
Cc1cc(Cc2ccc(Cl)cc2)n(O)c(=O)c1	Active	4.4	3.16	0.31	–	26	–	–	–	4.27	2.44	0.16	< 60	10
Cc1ccccc1-c1cc(CC2CCCCC2)n(O)c(=O)c1	Active	5.65	0.14	–	–	–	–	–	–	–	–	–	–	–
O=c1cc(-c2ccccc2)cc(CC2CCCCC2)n1O	Active	5.29	4.84	0.39	–	20	< 5	< 5	2.75 10^-6 cm/s	–	–	–	–	–
Cc1cc2ccccc2c(=O)n1O	Active	0.28	0.01	–	–	–	–	–	–	–	–	–	–	–
O=c1cc(C2CCCCC2)ccn1O	Active	0.04	0.2	–	–	–	–	–	–	–	–	–	–	–
Cc1cc(Cc2cccc(-c3ccccc3)c2)n(O)c(=O)c1	Active	4.2	4.22	0.39	–	24	< 5	< 5	1.09 10^-6 cm/s	–	–	–	–	–
O=c1ccc(C2CCCCC2)cn1O	Active	3.62	0.67	–	–	–	–	–	–	–	–	–	–	–
Cc1cc(CC2CCCCC2)n(O)c(=O)c1	Active	4.9	4.19	0.26	–	28	< 5	< 5	3.14 10^-5cm/s	4.43	3.98	–	< 60	10
Cc1cc(C2CCN(C(=O)C(C)C)CC2)n(O)c(=O)c1	Active	0.4	-0.08	–	–	–	–	–	–	–	–	–	–	–
Cc1cc(Cc2ccccc2Cl)n(O)c(=O)c1	Active	4.3	2.46	–	–	–	–	–	–	–	–	–	–	–
Cc1cc(Cc2cccc(Cl)c2)n(O)c(=O)c1	Active	4	1.82	–	–	–	–	–	–	–	–	–	–	–
Nc1nc2c(ncn2COCCO)c(=O)[nH]1 [ACYCLOVIR]	–	2.9	1.79	–	–	–	–	–	–	3.36	2.42	–	–	–
Cc1cc(Cc2ccccc2-c2ccccc2)n(O)c(=O)c1	Active	4.49	3.17	0.16	–	14	< 5	< 5	2.03 10^-7 cm/s	–	–	–	–	–
O=c1ccc(-c2ccccc2)cn1O [1-HYDROXY-5-PHENYLPYRIDIN-2(1H)-ONE]	Active	0	-0.03	–	–	–	–	–	–	–	–	–	–	–
Cc1cc(C2CCOCC2)n(O)c(=O)c1	Active	0.09	-0.23	–	–	–	–	–	–	–	–	–	–	–
Cc1cc(Cc2ccc(OCc3ccccc3)cc2)n(O)c(=O)c1	Active	4.25	4.1	0.13	–	19	–	–	9.42 10^-7 cm/s	5.18	4.74	–	–	–
Cc1cc(C2CCCC2)n(O)c(=O)c1	Active	2.38	0.37	–	–	–	–	–	–	–	–	–	–	–
O=c1cc(Cc2ccccc2)cc(CC2CCCCC2)n1O	Active	4.83	2.39	–	–	–	–	–	–	–	–	–	–	–
O=c1cc(-c2ccccc2)cc(Cc2ccccc2)n1O	Active	5.29	2.72	0.41	–	18	–	–	–	–	–	–	–	–
